Measured values published in US10189838B2, “Aza-oxo-indoles for the treatment and prophylaxis of respiratory syncytial virus infection” (Hoffmann-La Roche Inc., priority 2013, dated 2019).

Legend:
RSV Long strain = assay: Viral cytopathic effect (CPE) assay, RSV Long strain; assay type: cell-based, Respiratory Syncytial Virus; conditions: human respiratory syncytial virus, 144 h, cell viability after 6 days (Cell Counting kit-8)
In short: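 Cells in DMEM with 10% FBS infected next day with RSV Long (A subtype) at a dose giving ~80–90% CPE after 6 days, alongside half-log compound dilutions. Viability at day 6 by CCK-8, absorbance 450 nm referenced to 630 nm; EC50 is concentration giving 50% of maximal protection.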

[1] = Single dose PK in male ICR mouse (IV and PO); assay type: in vivo; conditions: male ICR mice; for AUC(0-t) / bioavailability: mouse, plasma; for bioavailability: read-out: F (bioavailability)
Experimental: The single dose PK in male ICR mouse was performed to assess their pharmacokinetic properties. Two groups of animals were dosed via either bolus intravenous (IV) or oral gavage (PO) of the respective compound. The animals for oral administration were fasted overnight prior to dosing and food was resumed 4 hours postdose. Blood samples (approximately 400 μL) were collected via cardiac puncture after euthanasia by carbon dioxide inhalation at 2 minutes, 5 minutes, 15 minutes, 30 minutes, 1 hour, 2 hours, 4 hours, 6 hours, 8 hours, and 24 hours postdose for IV group, and at 5 minutes, 15 minutes, 30 minutes, 1 hour, 2 hours, 4 hours, 6 hours, 8 hours, and 24 hours postdose for PO group. Blood samples were placed into tubes containing sodium heparin and centrifuged at 8000 rpm for 6 minutes at 4° C. to separate plasma from the samples.
Following centrifugation, the resulting plasma was transferred to clean tubes for bioanalysis on LC/MS/MS. The pharmacokinetic parameters were calculated using non-compartmental module of WinNonlin® Professional 5.2.

RSV infection = conditions: selected infants, intramuscularly 15 mg/kg once a month for the RSV season; cited from earlier work

CS(=O)(=O)CCn1c(CN2C(=O)C3(CC3)c3ccncc32)nc2cc(Cl)cc(F)c21 [Example 37-1, 1′-({5-Chloro-7-fluoro-1-[2-(methylsulfonyl)ethyl]-1H-benzimidazol-2-yl}methyl)spiro[cyclopropane-1,3′-pyrrolo[2,3-c]pyridin]-2′(1′H)-one]
EC50 (RSV Long strain): 9 nM | CLz ([1]; IV 2 mg/kg): 44.4 mL/min/kg | t1/2z ([1]; IV 2 mg/kg): 0.976 h | t1/2z ([1]; PO 25 mg/kg): 3.74 h | AUC(0-t) ([1]; IV 2 mg/kg): 751 ng·h/mL | AUC(0-t) ([1]; PO 25 mg/kg): 9290 ng·h/mL | bioavailability ([1]; PO 25 mg/kg): 99%

CS(=O)(=O)CCn1c(CN2C(=O)C3(CC3)c3ccncc32)nc2cc(Cl)ccc21 [Example 34-1, 1′-({5-Chloro-1-[2-(methylsulfonyl)ethyl]-1H-benzimidazol-2-yl}methyl)spiro[cyclopropane-1,3′-pyrrolo[2,3-c]pyridin]-2′(1′H)-one]
EC50 (RSV Long strain): 12 nM | CLz ([1]; IV 1.45 mg/kg): 64.8 mL/min/kg | t1/2z ([1]; IV 1.45 mg/kg): 10.2 h | t1/2z ([1]; PO 25 mg/kg): 2.98 h | AUC(0-t) ([1]; IV 1.45 mg/kg): 373 ng·h/mL | AUC(0-t) ([1]; PO 25 mg/kg): 3280 ng·h/mL | bioavailability ([1]; PO 25 mg/kg): 51%

palivizumab
reduction of hospitalization rate caused by RSV infection (RSV infection): 45-55%
